Experiments:
GPR43 [1] = molecular target: T1, GPR43 (Homo sapiens, UniProt O15552); assay: Calcium mobilization assay without probenecid; format: cell-based; details: GPR43 stably expressing cells, triggered with sodium acetate at EC80, read-out: GPR43 assay without probenicid IC50
T1 construct: expressed in transfected cells
T1 sequence (O15552 1-330): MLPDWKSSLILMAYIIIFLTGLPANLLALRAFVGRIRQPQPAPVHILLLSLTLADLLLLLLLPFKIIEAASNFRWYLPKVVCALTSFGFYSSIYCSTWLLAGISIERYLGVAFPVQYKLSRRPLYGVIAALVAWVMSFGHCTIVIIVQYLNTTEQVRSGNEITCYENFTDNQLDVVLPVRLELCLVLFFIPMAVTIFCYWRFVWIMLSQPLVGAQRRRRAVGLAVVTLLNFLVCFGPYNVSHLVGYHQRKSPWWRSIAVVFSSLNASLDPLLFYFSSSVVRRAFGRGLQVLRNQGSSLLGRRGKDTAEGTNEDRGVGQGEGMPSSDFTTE
Method: The following assay can be used for determination of GPR43 activation. The assay measures intracellular calcium release induced by activation of GPR43. On day 1, GPR43 stably expressing cells were detached with mild trypsinization (Trypsin, 0.25% with EDTA 4Na, 5× diluted in PBS) centrifuged at 1000 rpm for 5 min and resuspended at 6.000 cells/25 μL medium (DMEM supplemented with 10% FBS, 10 μg/mL puromycin and 1% Pen/Strep). The cells were distributed in poly-D-lysine coated 384 well plates (black with clear bottom, 25 μL/well) and incubated overnight at 37° C. 10% CO2. On day 2, 25 μL of a fluorescent Ca^2+ indicator (Calcium 4 assay; Molecular Devices) was added on top of the cells and incubated for 2 h at 37° C. Subsequently, compounds at increasing concentration (10 μL/well) were added to the plate and incubated for 15 min at 37° C. Finally the cells were triggered with sodium acetate at EC80 concentration (concentration which gives 80% of the activity of the GPR43) and the Ca-flux was measured simultaneously to the trigger injection on a fluorescence plate reader (FlexStation3), this measures the antagonist activity of the compounds. To measure agonist activity of the compounds, compound was added to the well and the Ca-flux was measured simultaneously to the injection of compound.

GPR43 [2] = molecular target: T1, GPR43; assay: Calcium mobilization assay with probenecid; format: cell-based; details: GPR43 stably expressing cells; triggered with sodium acetate at EC80; 2.5 mM probenecid; read-out: GPR43 assay with probenicid IC50
Summary of the method: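 […] being added at rising concentrations to a GPR43 stable line. Before this, cells were dye-loaded (Calcium 4 with 2.5 mM probenecid) for 2 h at 37 °C after overnight plating.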

SMILES	IC50 (GPR43 [1]) [µM]	IC50 (GPR43 [2]) [µM]
CN(Cc1ccc(Cl)cc1)C(=O)C1(C)CCN1C(=O)Cc1ccc(Cl)c(Cl)c1 (centres unmarked) [Compound 18, 1-[2-(3,4-Dichloro-phenyl)-acetyl]-2-methyl-azetidine-2-carboxylic acid (4-chloro-benzyl)-methyl-amide]	> 1	> 1
CN(Cc1ccc(Cl)cc1)C(=O)C1(C)CCN1C(=O)Cc1ccc(-c2ccccc2)cc1 (centres unmarked) [Compound 20, 1-(2-Biphenyl-4-yl-acetyl)-2-methyl-azetidine-2-carboxylic acid (4-chloro-benzyl)-methyl-amide]	> 1	> 1
CN(Cc1ccc(Cl)cc1)C(=O)C1(C)CCN1C(=O)Cc1ccc(-c2cccc(Cl)c2)cc1 (centres unmarked) [Compound 21, 1-[2-(3′-Chloro-biphenyl-4-yl)-acetyl]-2-methyl-azetidine-2-carboxylic acid (4-chloro-benzyl)-methyl-amide]	> 1	> 1
CN(Cc1ccc(Cl)cc1)C(=O)C1(C)CCN1C(=O)Cc1ccc(-c2cccc(C#N)c2)cc1 (centres unmarked) [Compound 22, 1-[2-(3′-Cyano-biphenyl-4-yl)-acetyl]-2-methyl-azetidine-2-carboxylic acid (4-chloro-benzyl)-methyl-amide]	> 1	> 1
COc1ccc(-c2ccc(CC(=O)N3CCC3(C)C(=O)N(C)Cc3ccc(Cl)cc3)cc2)cc1 (centres unmarked) [Compound 23, 1-[2-(4′-Methoxy-biphenyl-4-yl)-acetyl]-2-methyl-azetidine-2-carboxylic acid (4-chloro-benzyl)-methyl-amide]	> 1	> 1

More lines, now with the values ahead:

IC50 (GPR43 [1]) [µM]	IC50 (GPR43 [2]) [µM]	SMILES
0.101 to 0.5	0.101 to 0.5	Cc1cc(C)cc(CC(=O)N2CCC2(C)C(=O)N(C)Cc2ccc(C(F)(F)F)cc2)c1 (centres unmarked) [Compound 7, 1-[2-(3,5-Dimethyl-phenyl)-acetyl]-2-methyl-azetidine-2-carboxylic acid methyl-(4-trifluoromethyl-benzyl)-amide]
> 1	> 1	CN(Cc1ccc(Cl)cc1)C(=O)C1(C)CCN1C(=O)Cc1ccccc1Cl (centres unmarked) [Compound 9, 1-[2-(2-Chloro-phenyl)-acetyl]-2-methyl-azetidine-2-carboxylic acid (4-chloro-benzyl)-methyl-amide]
> 1	> 1	CN(Cc1ccc(Cl)cc1)C(=O)C1(C)CCN1C(=O)Cc1cccc(Cl)c1 (centres unmarked) [Compound 10, 1-[2-(3-Chloro-phenyl)-acetyl]-2-methyl-azetidine-2-carboxylic acid (4-chloro-benzyl)-methyl-amide]
> 1	> 1	CN(Cc1ccc(Cl)cc1)C(=O)C1(C)CCN1C(=O)Cc1ccc(Cl)cc1 (centres unmarked) [Compound 11]
> 1	> 1	CN(Cc1ccc(Cl)cc1)C(=O)C1(C)CCN1C(=O)Cc1ccc(F)c(F)c1 (centres unmarked) [Compound 12, 1-[2-(3,4-Difluoro-phenyl)-acetyl]-2-methyl-azetidine-2-carboxylic acid (4-chloro-benzyl)-methyl-amide]
> 1	> 1	CN(Cc1ccc(Cl)cc1)C(=O)C1(C)CCN1C(=O)Cc1ccc(-c2ccc(F)cc2)cc1 (centres unmarked) [Compound 15, 1-[2-(4′-Fluoro-biphenyl-4-yl)-acetyl]-2-methyl-azetidine-2-carboxylic acid (4-chloro-benzyl)-methyl-amide]
> 1	> 1	CN(Cc1ccc(Cl)cc1)C(=O)C1(C)CCN1C(=O)Cc1ccccc1OCc1ccccc1 (centres unmarked) [Compound 16, 1-[2-(2-Benzyloxy-phenyl)-acetyl]-2-methyl-azetidine-2-carboxylic acid (4-chloro-benzyl)-methyl-amide]
> 1	> 1	CN(Cc1ccc(Cl)cc1)C(=O)C1(C)CCN1C(=O)Cc1ccccc1I (centres unmarked) [Compound 17, 1-[2-(2-Iodo-phenyl)-acetyl]-2-methyl-azetidine-2-carboxylic acid (4-chloro-benzyl)-methyl-amide]

— patent US8759334B2, “Compounds useful for the treatment of metabolic and inflammatory diseases” (Galapagos NV, priority 2011, dated 2014)
